{"source": "paper PMC7799360", "about": "“Reprogramming immunosuppressive myeloid cells facilitates immunotherapy for colorectal cancer” (EMBO Molecular Medicine, 2020)", "key": {"[1]": {"biological_target": "T1, BB1 (Homo sapiens, UniProt P28336)", "T1 construct": "Pharmaron (Beijing, China), contract laboratory", "T1 sequence (P28336 whole entry)": "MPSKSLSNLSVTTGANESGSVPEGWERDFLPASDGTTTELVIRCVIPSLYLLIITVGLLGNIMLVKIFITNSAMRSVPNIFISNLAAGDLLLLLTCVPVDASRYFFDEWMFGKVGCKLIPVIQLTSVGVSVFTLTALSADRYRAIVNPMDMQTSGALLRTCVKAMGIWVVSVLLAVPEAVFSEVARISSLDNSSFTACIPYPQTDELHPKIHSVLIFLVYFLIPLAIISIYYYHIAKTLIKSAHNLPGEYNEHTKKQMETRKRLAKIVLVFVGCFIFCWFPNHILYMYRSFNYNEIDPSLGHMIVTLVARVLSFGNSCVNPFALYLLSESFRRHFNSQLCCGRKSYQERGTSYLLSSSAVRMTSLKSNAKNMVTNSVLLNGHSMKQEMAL", "assay": "GPCR calcium flux assay", "format": "cell-based"}, "[2]": {"biological_target": "T2, HRH1 (Homo sapiens, UniProt P35367)", "T2 construct": "Pharmaron (Beijing, China), contract laboratory", "T2 sequence (P35367 whole entry, species assumed)": "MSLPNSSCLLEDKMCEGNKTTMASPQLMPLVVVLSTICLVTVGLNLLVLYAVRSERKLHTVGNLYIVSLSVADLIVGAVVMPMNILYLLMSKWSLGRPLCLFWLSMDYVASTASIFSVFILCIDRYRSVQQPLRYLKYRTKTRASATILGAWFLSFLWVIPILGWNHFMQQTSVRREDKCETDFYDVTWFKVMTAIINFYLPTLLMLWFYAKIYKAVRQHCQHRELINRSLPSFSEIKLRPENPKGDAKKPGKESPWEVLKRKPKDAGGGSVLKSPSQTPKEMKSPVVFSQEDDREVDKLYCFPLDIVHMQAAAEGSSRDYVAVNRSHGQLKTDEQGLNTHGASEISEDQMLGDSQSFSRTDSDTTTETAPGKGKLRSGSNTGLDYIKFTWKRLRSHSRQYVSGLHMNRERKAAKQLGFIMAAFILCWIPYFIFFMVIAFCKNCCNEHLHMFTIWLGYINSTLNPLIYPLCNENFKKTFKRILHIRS", "assay": "GPCR calcium flux assay", "format": "cell-based"}, "[3]": {"system": "MC38", "assay": "Cell viability (MTS)", "format": "cell-based, mouse", "conditions": "MC38, 100 µM", "from_the_text": "(§1) The murine colon cancer (CT26), murine breast cancer (4T1), and human colon cancer (HCT116, HCT8, HT29, and DLD1) cell lines were obtained from American Type Culture Collection (ATCC). The murine cell lines of melanoma (B16F10), pancreatic cancer (Pan02), and colon cancer (MC38), Chinese hamster ovary (CHO) cell line, and human embryonic kidney cell lines (HEK293 and HEK293T) were purchased from the National Infrastructure of Cell Line Resource (Shanghai, China). Primary human endothelial cells (HUVECs) were kindly provided by Dr. Xinli Wang (Baylor College of Medicine, Houston, TX, USA) and cultured in endothelial cell medium (ScienCell, San Diego, CA, USA) according to the manufacturer’s instructions. The CHO‐Gα16 cell line was established in our previous study and maintained in DMEM/F12 medium containing puromycin (4 μg/ml) (Wu et al., 2018). Cell lines were maintained in vendor recommended growth medium supplemented with 10% FBS (Gibco, Waltham, MA, USA) and 1% penicillin/streptomycin solution (Gibco) at 37°C ins a humidified atmosphere (5% CO2). All cell lines were authenticated using short tandem repeat analysis. All cell lines were confirmed to be mycoplasma‐free by polymerase chain reaction (PCR) analysis. Cell viability was determined using CellTiter 96 ® Aqueous One Solution (Promega, Madison, WI).\n(§2) Appendix Figure S1. […]. The cytotoxicity curves\n(§3) . Mouse cancer cells: CT26\n(§4) . Human colon cancer cells: HCT116 (E),\n(§5) HCT8 (F), HT29 (G) and DLD1 (H). Human normal cell line: HUVECs (I). Cell\n(§6) viability was measured by MTS. Data are presented as mean ± SEM derived\n(§7) from three independent experiments (n=3).\n(§8) (1 picture or pasted object on this page, not shown here)"}, "[4]": {"system": "4T1", "assay": "Cell viability (MTS)", "format": "cell-based, mouse", "conditions": "4T1, 100 µM", "from_the_text": "as §1, §2, §3, §4, §5, §6, §7, §8"}, "[5]": {"system": "Panc02", "assay": "Cell viability (MTS)", "format": "cell-based, mouse", "conditions": "Panc02, 100 µM", "from_the_text": "as §1, §2, §3, §4, §5, §6, §7, §8"}, "[6]": {"system": "CT26", "assay": "Cell viability (MTS)", "format": "cell-based, mouse", "conditions": "CT26, 100 µM", "from_the_text": "as §1, §2, §3, §4, §5, §6, §7, §8"}, "[7]": {"biological_target": "T3, DRD1 (Homo sapiens, UniProt P21728)", "T3 construct": "Pharmaron (Beijing, China), contract laboratory", "T3 sequence (P21728 whole entry, species assumed)": "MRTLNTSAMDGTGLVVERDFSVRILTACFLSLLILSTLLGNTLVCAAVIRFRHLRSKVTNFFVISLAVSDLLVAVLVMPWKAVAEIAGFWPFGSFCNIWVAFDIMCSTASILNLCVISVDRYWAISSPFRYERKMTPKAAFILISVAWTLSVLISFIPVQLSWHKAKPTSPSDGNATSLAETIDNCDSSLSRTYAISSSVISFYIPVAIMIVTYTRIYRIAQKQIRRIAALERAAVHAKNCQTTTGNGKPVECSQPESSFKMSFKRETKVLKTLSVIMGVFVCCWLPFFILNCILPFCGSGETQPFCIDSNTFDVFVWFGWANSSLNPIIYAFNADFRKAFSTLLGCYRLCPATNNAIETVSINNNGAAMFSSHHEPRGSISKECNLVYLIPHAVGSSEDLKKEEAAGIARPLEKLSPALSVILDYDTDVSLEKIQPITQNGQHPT", "assay": "GPCR calcium flux assay", "format": "cell-based"}, "[8]": {"system": "MC38 tumors", "assay": "MC38 colorectal cancer model in C57BL/6 mice", "format": "in vivo, mouse", "conditions": "MC38, 75 mg/kg p.o. daily", "method": "(§9) Syngeneic mouse tumor‐bearing models were established as described previously (Tan et al., 2018). Tumor cells (5 × 10^5 ‐ 2 × 10^6) were suspended in 100 μl PBS and implanted subcutaneously into the flank of mice. Mice were randomized into different treatment groups when tumor volumes reached 100‐200 mm^3. V = L×W^2 × 0.52, where L is the longest diameter, and W is the shortest diameter. Tumor size and body weight were recorded every second or third day. Mouse survival was analyzed using the Kaplan–Meier method.\n(§10) Single agent or combination treatment was designed as follows: TP‐16 (37.5, 75, 150 mg/kg) or celecoxib (100 mg/kg) was formulated in 0.5% carboxymethylcellulose sodium (CMC‐Na, Sangon Biotech, Shanghai, China) and administered via oral gavage daily. In vivo anti‐PD1 antibody (clone RMP1‐14, BioXCell, West Lebanon, NH, USA) and rat IgG2a isotype control (clone 2A3, BioXCell) were diluted in sterile PBS and administered intraperitoneally at a dose of 50 μg twice weekly."}, "[9]": {"system": "CT26 tumors", "assay": "CT26 subcutaneous syngeneic tumor model in BALB/c mice", "format": "in vivo, mouse", "method": "as §9, §10"}, "[10]": {"assay": "Pharmacokinetics in CD1 mice", "format": "in vivo, mouse", "conditions": "for AUC(0-t): read-out: AUC0-24", "from_the_text": "5% (v/v) dimethyl sulfoxide ( DMSO), 10% solutol, and 85% β -cyclodextrin) to male CD1 mice (n = 3). Blood samples were collected at 0.08, 0.25, 0.5, 1, 2, 4, 8, and 24 hr after administration. After suitable sample preparation, the concentration of TP -16 in plasma samples was determine d by the Agilent 1290 HPLC system, coupled with a 6460 triple -quadrupole mass spectrometer and an Agilent Jet Stream electrospray ionization (ESI) source (Agilent\nTechnologies, USA). Pharmacokinetic parameters were calculated by WinNonlin software version 7.0 based on non -compartmental analysis\n(Pharsight Corporation, Mountain View, USA). […]"}, "[11]": {"biological_target": "T4, HTR2B (Homo sapiens, UniProt P41595)", "T4 construct": "Pharmaron (Beijing, China), contract laboratory", "T4 sequence (P41595 whole entry, species assumed)": "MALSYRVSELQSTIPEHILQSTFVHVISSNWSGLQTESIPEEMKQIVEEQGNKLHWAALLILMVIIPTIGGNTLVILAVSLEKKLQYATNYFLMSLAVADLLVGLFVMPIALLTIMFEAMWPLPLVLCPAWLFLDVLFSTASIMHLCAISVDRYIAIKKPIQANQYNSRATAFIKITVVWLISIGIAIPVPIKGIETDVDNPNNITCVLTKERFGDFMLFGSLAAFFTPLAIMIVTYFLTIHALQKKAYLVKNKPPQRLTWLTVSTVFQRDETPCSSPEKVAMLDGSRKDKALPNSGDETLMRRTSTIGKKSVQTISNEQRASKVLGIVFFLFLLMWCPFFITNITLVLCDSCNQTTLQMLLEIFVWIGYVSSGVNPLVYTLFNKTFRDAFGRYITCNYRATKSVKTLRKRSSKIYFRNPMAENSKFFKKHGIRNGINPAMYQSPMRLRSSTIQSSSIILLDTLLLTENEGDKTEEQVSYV", "assay": "GPCR calcium flux assay", "format": "cell-based"}, "[12]": {"system": "Pan02 tumors", "assay": "Pan02 pancreatic cancer model in C57BL/6 mice", "format": "in vivo, mouse", "conditions": "Pan02, C57BL/6 mice, 75 mg/kg p.o. daily", "method": "as §9, §10"}, "[13]": {"biological_target": "T5, AVPR1A (Homo sapiens, UniProt P37288)", "T5 construct": "Pharmaron (Beijing, China), contract laboratory", "T5 sequence (P37288 whole entry, species assumed)": "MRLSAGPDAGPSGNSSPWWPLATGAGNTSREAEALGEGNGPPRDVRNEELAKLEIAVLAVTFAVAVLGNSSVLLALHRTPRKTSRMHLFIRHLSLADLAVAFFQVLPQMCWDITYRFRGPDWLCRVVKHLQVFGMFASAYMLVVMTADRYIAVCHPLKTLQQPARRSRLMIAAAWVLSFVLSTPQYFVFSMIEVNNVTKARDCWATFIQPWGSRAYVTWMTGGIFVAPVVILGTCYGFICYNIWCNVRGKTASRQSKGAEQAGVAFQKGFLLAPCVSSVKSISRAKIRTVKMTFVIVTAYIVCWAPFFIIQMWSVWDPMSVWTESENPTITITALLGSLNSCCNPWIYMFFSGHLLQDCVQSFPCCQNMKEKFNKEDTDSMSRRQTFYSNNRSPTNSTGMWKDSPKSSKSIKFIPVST", "assay": "GPCR calcium flux assay", "format": "cell-based"}, "[14]": {"biological_target": "T6, human EP2 (Homo sapiens, UniProt P43116)", "T6 construct": "host or cells: CHO-Gα16", "T6 sequence (P43116 whole entry)": "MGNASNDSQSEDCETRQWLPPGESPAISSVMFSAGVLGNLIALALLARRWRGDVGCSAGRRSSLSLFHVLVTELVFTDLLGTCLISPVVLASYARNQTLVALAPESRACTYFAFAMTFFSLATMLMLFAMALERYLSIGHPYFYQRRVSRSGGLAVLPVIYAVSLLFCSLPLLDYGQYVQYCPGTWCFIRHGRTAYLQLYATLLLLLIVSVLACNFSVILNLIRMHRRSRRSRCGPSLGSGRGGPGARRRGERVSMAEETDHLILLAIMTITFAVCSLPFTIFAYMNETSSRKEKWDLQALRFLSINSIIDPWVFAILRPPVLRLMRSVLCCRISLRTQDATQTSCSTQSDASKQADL", "assay": "PGE2-induced calcium flux assay in CHO-Gα16 cells", "format": "cell-based"}, "[15]": {"biological_target": "T7, ADRA1B (Homo sapiens, UniProt P35368)", "T7 construct": "Pharmaron (Beijing, China) performed the assay", "T7 sequence (P35368 whole entry, species assumed)": "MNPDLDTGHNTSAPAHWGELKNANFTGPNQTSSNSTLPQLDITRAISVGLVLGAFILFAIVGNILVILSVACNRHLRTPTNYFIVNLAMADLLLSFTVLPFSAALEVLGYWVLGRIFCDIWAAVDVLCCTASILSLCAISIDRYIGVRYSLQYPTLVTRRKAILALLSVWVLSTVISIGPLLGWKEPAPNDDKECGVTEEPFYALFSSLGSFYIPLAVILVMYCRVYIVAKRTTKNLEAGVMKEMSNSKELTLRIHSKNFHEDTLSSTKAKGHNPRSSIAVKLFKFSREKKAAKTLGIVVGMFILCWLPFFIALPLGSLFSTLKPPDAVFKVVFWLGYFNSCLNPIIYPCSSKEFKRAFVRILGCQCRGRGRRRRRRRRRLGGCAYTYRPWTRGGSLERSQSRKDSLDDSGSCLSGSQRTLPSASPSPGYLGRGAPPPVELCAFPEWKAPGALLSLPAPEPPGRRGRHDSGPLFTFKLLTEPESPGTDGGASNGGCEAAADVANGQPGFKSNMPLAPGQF", "assay": "GPCR calcium flux assay", "format": "cell-based"}, "[16]": {"biological_target": "T8, ADORA2A (Homo sapiens, UniProt P29274)", "T8 construct": "Pharmaron (Beijing, China) performed the assay", "T8 sequence (P29274 whole entry, species assumed)": "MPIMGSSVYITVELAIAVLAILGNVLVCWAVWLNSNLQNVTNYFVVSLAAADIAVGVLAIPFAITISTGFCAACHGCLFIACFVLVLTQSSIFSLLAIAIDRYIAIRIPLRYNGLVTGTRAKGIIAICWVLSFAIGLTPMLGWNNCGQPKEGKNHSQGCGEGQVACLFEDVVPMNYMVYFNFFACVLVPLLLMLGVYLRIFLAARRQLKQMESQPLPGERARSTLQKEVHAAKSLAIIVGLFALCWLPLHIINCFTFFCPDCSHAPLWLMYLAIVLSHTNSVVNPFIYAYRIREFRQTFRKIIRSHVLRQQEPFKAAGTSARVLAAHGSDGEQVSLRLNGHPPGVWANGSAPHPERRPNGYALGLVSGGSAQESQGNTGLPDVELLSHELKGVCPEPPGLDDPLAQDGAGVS", "assay": "LANCE Ultra cAMP assay", "format": "cell-based"}, "[17]": {"assay": "In vitro metabolic stability using liver microsome", "format": "in vitro ADME", "conditions": "liver microsomes"}, "[18]": {"biological_target": "T9, human EP1 (Homo sapiens, UniProt P34995)", "T9 construct": "host or cells: CHO-Gα16", "T9 sequence (P34995 whole entry)": "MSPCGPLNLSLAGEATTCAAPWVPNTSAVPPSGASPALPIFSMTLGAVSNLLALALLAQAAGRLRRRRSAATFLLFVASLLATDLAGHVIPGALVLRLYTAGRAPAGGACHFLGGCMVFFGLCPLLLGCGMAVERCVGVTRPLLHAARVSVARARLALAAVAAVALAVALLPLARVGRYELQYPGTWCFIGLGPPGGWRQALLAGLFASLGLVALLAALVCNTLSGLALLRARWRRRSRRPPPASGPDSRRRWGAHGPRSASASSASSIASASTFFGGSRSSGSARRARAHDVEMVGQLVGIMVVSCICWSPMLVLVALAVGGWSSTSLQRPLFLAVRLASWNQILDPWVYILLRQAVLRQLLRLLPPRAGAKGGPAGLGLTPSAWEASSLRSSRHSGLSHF", "assay": "PGE2-induced calcium flux assay in CHO-Gα16 cells", "format": "cell-based"}, "[19]": {"conditions": "male, mouse, plasma, iv, I.V. 1 mg/kg"}, "[20]": {"conditions": "male, mouse, plasma, po, P.O. 10 mg/kg"}}, "note": "Read-outs that look alike come from different tables or passages of the source.", "data": [{"compound": "C[C@H](NC(=O)c1c(Cc2ccc(F)cc2)sc2c1CCOC2)c1ccc(C(=O)O)cc1", "note": "[TP-16]", "values": [{"measurement": "IC50", "setting": "[1]", "result": "> 10", "unit": "µM"}, {"measurement": "IC50", "setting": "[2]", "result": "> 10", "unit": "µM"}, {"measurement": "effect on cell viability", "setting": "[3]", "result": "did not affect the viability"}, {"measurement": "effect on cell viability", "setting": "[4]", "result": "did not affect the viability"}, {"measurement": "effect on cell viability", "setting": "[5]", "result": "did not affect the viability"}, {"measurement": "effect on cell viability", "setting": "[6]", "result": "did not affect the viability"}, {"measurement": "IC50", "setting": "[7]", "result": "> 10", "unit": "µM"}, {"measurement": "%TGI", "setting": "[8]", "result": 50.6, "unit": "%"}, {"measurement": "%TGI (tumor growth inhibition)", "setting": "[9]; CT26, BALB/c mice, 37.5 mg/kg p.o. daily, 16 days", "result": 26.2, "unit": "%"}, {"measurement": "%TGI (tumor growth inhibition)", "setting": "[9]; CT26, BALB/c mice, 75 mg/kg p.o. daily, 16 days", "result": 47.4, "unit": "%"}, {"measurement": "%TGI (tumor growth inhibition)", "setting": "[9]; CT26, BALB/c mice, 150 mg/kg p.o. daily, 16 days", "result": 47.6, "unit": "%"}, {"measurement": "anti-tumor efficacy compared with E7046", "setting": "[9]; CT26, BALB/c mice, both 150 mg/kg", "result": "greater efficacy than E7046"}, {"measurement": "median survival time", "setting": "[9]; CT26, BALB/c, TP-16 75 mg/kg p.o. daily, anti-PD-1 50 μg i.p. twice weekly, 2 weeks, control 16 days", "result": 30, "unit": "days"}, {"measurement": "anti-tumor efficacy compared with celecoxib", "setting": "[9]; CT26, TP-16 75 mg/kg vs celecoxib 100 mg/kg, p.o. daily, 16 days", "result": "superior"}, {"measurement": "Vd/F", "setting": "[10]; I.V. 1 mg/kg", "result": 2.016, "unit": "L/kg"}, {"measurement": "bioavailability", "setting": "[10]; male, mouse, plasma, 10 mg/kg, ratio of oral AUC0-∞ to intravenous AUC0-∞", "result": 40.1, "unit": "%"}, {"measurement": "AUC(0-inf)", "setting": "[10]; [19]", "result": 2140, "unit": "ng·h/mL"}, {"measurement": "C0", "setting": "[10]; [19]", "result": 2370, "unit": "ng/mL"}, {"measurement": "MRT", "setting": "[10]; [19]", "result": 2.1, "unit": "h"}, {"measurement": "half-life", "setting": "[10]; [19]", "result": 3, "unit": "h"}, {"measurement": "AUC(0-t)", "setting": "[10]; [19]", "result": 2140, "unit": "ng·h/mL"}, {"measurement": "AUC(0-inf)", "setting": "[10]; [20]", "result": 8580, "unit": "ng·h/mL"}, {"measurement": "CL/F", "setting": "[10]; [20]", "result": 19.4, "unit": "mL/min/kg"}, {"measurement": "Cmax", "setting": "[10]; [20]", "result": 3850, "unit": "ng/mL"}, {"measurement": "MRT", "setting": "[10]; [20]", "result": 3.7, "unit": "h"}, {"measurement": "half-life", "setting": "[10]; [20]", "result": 5.4, "unit": "h"}, {"measurement": "AUC(0-t)", "setting": "[10]; [20]", "result": 8400, "unit": "ng·h/mL"}, {"measurement": "Vd/F", "setting": "[10]; male, mouse, plasma, po, P.O. 10 mg/kg, read-out: Vd/F", "result": 9.08, "unit": "L/kg"}, {"measurement": "IC50", "setting": "[11]", "result": "> 10", "unit": "µM"}, {"measurement": "%TGI", "setting": "[12]", "result": 44.0, "unit": "%"}, {"measurement": "IC50", "setting": "[13]", "result": "> 10", "unit": "µM"}, {"measurement": "IC50", "setting": "[14]", "result": "> 10", "unit": "µM"}, {"measurement": "IC50", "setting": "[15]", "result": "> 10", "unit": "µM"}, {"measurement": "IC50", "setting": "[16]", "result": "> 10", "unit": "µM"}, {"measurement": "CLhep predicted", "setting": "[17]; human, read-out: Predicted hepatic Clint", "result": "< 4.69", "unit": "mL/min/kg"}, {"measurement": "hepatocyte CLint", "setting": "[17]; human liver microsome", "result": "< 2.39", "unit": "µL/min/1e6 cells"}, {"measurement": "half-life", "setting": "[17]; human liver microsome, read-out: In vitro T1/2", "result": "> 9.68", "unit": "h"}, {"measurement": "CLint scaled", "setting": "[17]; human liver microsome, read-out: Scale-up Clint", "result": "< 6.07", "unit": "mL/min/kg"}, {"measurement": "IC50", "setting": "[18]", "result": "> 10", "unit": "µM"}]}]}
